Results: article PMC3714356 (The Journal of investigative dermatology, 2013)
Read-outs that look alike come from different tables or passages of the source.

Columns and labels:
Cyp1b1 = experiment: HaCaT cells, CYP1B1 mRNA by Reverse Transcriptase Real-Time PCR; assay type: cell-based, human; settings: 1 μM, 24h
Cyp1a1 [1] = experiment: HaCaT cells, CYP1A1 mRNA by Reverse Transcriptase Real-Time PCR; settings: for induction of CYP1A1 mRNA: 100 nM; for Cyp1a1 induction, time dependence: 24h compared to 3 and 6h
AhR [2] = biological target: T1, AhR (Homo sapiens, UniProt P35869); experiment: cell-based
T1 sequence (P35869 11-848): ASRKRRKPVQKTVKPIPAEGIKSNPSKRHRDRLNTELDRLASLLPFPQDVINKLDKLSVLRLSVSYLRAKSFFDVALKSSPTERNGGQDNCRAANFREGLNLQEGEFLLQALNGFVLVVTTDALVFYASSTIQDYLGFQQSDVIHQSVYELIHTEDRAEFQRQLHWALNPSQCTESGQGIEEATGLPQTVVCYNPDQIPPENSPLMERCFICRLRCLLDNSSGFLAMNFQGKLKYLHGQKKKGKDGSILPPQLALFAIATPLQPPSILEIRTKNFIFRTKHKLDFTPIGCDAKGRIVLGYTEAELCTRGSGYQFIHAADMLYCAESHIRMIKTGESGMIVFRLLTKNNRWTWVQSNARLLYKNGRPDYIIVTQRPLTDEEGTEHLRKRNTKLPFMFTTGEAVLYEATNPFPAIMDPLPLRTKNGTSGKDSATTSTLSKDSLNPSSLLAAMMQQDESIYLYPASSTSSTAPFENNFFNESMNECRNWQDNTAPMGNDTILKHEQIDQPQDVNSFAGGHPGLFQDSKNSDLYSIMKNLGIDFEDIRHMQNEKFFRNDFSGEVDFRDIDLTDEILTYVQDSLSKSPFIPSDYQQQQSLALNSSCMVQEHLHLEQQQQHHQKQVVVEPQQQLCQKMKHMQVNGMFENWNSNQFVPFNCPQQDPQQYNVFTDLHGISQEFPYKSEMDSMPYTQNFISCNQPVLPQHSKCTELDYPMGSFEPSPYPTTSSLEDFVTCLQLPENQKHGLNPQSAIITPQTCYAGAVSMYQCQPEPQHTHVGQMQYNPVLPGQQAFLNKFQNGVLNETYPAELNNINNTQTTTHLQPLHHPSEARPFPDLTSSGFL

Cyp1a1 [3] = settings: human
AhR [4] = biological target: T1, AhR
[5] = 6 hours of incubation, HG2L7.5c1 cells

Row | Compound | induction of CYP1A1 mRNA (Cyp1a1 [1]; 24h) | Cyp1a1 induction, time dependence (Cyp1a1 [1]) | EC50 (AhR [2]) [nM] | also measured
1 | O=Cc1c2[nH]c3ccccc3c2cc2[nH]c3ccccc3c12 [FICZ, 6-formylindolo[3,2-b]carbazole] | Statistically significant induction | higher at 24h |  | Cyp1b1 induction compared with ICZ or indirubin (Cyp1b1): significantly more potent; Cyp1a1 induction compared with ICZ or indirubin (Cyp1a1 [1]; 1 μM, 24h): significantly more potent
2 | Clc1cc2c(cc1Cl)Oc1cc(Cl)c(Cl)cc1O2 [TCDD, 2,3,7,8-tetrachlorodibenzo-p-dioxin, reference compound] |  |  | 0.523 | 
3 | O=C1Nc2ccccc2/C1=C1/Nc2ccccc2C1=O [indirubin] |  |  |  | Cyp1a1 induction, time dependence (Cyp1a1 [3]): higher at 24h
4 | O=Cc1c(Cc2c[nH]c3ccccc23)[nH]c2ccccc12 [malassezin] |  |  |  | fold less potent than TCDD (AhR [4]; [5]): 20 fold
5 | O=C1c2ccccc2-n2c1nc1ccccc1c2=O [tryptanthrin] |  |  | 107 | fold less potent than TCDD (AhR [4]): 200 fold
6 | indolo[3,2-b]carbazole [ICZ] | Statistically significant induction | higher at 24h |  | potency relative to the prototypical AhR agonist TCDD (AhR [4]; [5]): equipotent
